# Measurements as given in patent US10610564B2, “IRGM and precision autophagy controls for antimicrobial and inflammatory disease states and methods of detection of autophagy” (STC.UNM, priority 2015, dated 2020).
# Columns and labels:
# AMPK = conditions: statement in figure legend; compound C used at 20, 40, 80, 160 μM; cited from earlier work
# [1] = system: NLRP3, NLRP1, pro-caspase 1, TRIM20; experiment: Levels of inflammasome components and GFP-TRIM20 in cells expressing GFP-TRIM20 after autophagy induction (EBSS); format: cell-based; conditions: EBSS 3 h, with bafilomycin A1
# Description: (§1) (A) Levels of NLRP3 were determine in lysates from THP-1 cells subjected to TRIM20 or Scr siRNA were activated with 1,000 U/mL IFN-γ for 3 h, and 2.5 μg/mL LPS for 2 h (for optimal TRIM20 expression; Supplementary FIG. 24B). RI, relative intensity. (B) Levels of NLRP3 were determined from THP-1 subjected to TRIM20 or control knockdown and treated or not with bafilomycin A1 (Baf A1). (C) The abundance of NLRP3 protein was determined from THP-1 cells subjected to TRIM20 or control knockdown and exposed to Escherichia coli strain LF82 and IFN-γ in the presence or absence of bafilomycin. (D) The abundance of NLRP3 protein was determined from primary human MDMs subjected to TRIM20 or control knockdown and exposed to LPS and IFN-γ in the presence or absence of bafilomycin. (E) Levels of NLRP3 were determined from THP-1 cells subjected to ULK1, Beclin 1, or Scr siRNA were treated with IFN-γ and LPS. (F-H) Levels of NLRP3 (F), NLRP1 (G), or pro-capsase 1 (H) were determined in cells expressing GFP or GFP-TRIM20 following autophagy induction (EBSS, 3 h) in the presence or absence of bafilomycin A1. Data, means±SE, n≥3, *P<0.05, ^†P≥0.05 (ANOVA).
# (A) Co-immunoprecipitation analysis of deletion variants of TRIM20 (as GFP fusions; asterisks denote fusion products on the bottom blot) with NLRP3 in HEK293 cells. (B) THP-1 cells were treated with IFN-γ for 3 h, additionally treated with 2.5 μg/ml of LPS for indicated periods, and TRIM20 mRNA levels were determined by quantitative PCR. […] (C and D) Levels of NLRP3 were determined in lysates from THP-1 cells subjected to TRIM20 or Scr siRNA were (C) untreated either IFN-γ or LPS, or (D) LPS alone for 2 h. (E) THP-1 cells were treated with 1.0 μg/ml of LPS for 3 h, and levels of NLRP3 in lysate were determined by immunoblots. (F) Knockdown efficacies of ULK1 and Beclin 1 by siRNA were examined by quantitative RT-PCR. (G and H) Levels of GFP-TRIM20 were determined in cells co-expressing (G) with or (H) without NLRP3 following autophagy induction (EBSS, 3 h) in the presence or absence of bafilomycin A1. […]
# dimerized IRF3 = experiment: IRF3 dimerization assay (native PAGE) in THP-1 cells; format: cell-based, human; conditions: HT-DNA and IFN-γ, with bafilomycin
# Source text: (A) Confocal microscopy of HeLa cells co-expressing mCherry-TRIM21, Flag-IRF3, and GFP-LC3B in the presence of bafilomycin A1. White outline, cell boundary. Arrows indicate the colocalization. (B) Confocal microscopy of HEK293 cells co-expressing mCherry-TRIM21, Flag-IRF3, and GFP-ULK1. (C) Co-immunoprecipitation analysis of IRF3-ULK1 complexes in the presence and absence of TRIM21. Lysates from HEK293 cells transiently expressing Myc-ULK1, Flag-IRF3, and either […] or GFP were immunoprecipitated with anti-Myc, and immunoblots were probed as indicated. (D) Levels of dimerized IRF3 were assessed by native PAGE from THP-1 cells subjected to TRIM21 or control knockdown, and stimulated for 12 h by herring testis DNA (HT-DNA) transfected into the cells in the presence of 200 U/mL IFN-γ. […]
# Detection of IRF3 dimerization was performed by native polyacrylamide gel electrophoresis (PAGE) as previously described (Takahasi et al., 2003). Quantitative RT-PCR was performed as previously described (Kimura et al., 2013) using the following primer sets: ULK1, ([…], […]); BECN1, ([…], […]); ACTIN, ([…], […]); TRIM1, ([…], […]); TRIM5, ([…], […]); TRIM8, ([…], […]); TRIM16, ([…], […]); TRIM20, ([…], […]); TRIM21, ([…], […]); TRIM22, ([…], […]); TRIM28, ([…], […]); TRIM56, ([…], […]); and TRIM65, ([…], […]). […]
# NOD2 = experiment: Western blot of NOD2 levels in HEK293T cells co-expressing GFP-IRGM and Flag-NOD2; format: cell-based; conditions: Bafilomycin A1 100 nM for 8 h
# Description: (A) Effects of IRGM expression on NOD2 levels in transfected HEK293T cells. Data, means±SE; *, p<0.05 (Student's unpaired t test). (B) Lysates of HEK293T cell co-expressing GFP or GFP-IRGM and Flag-NOD2, untreated/treated with Bafilomycin A1 (100 nM for 8 h) were subjected to Western blotting. (C) Lysates of cells co-expressing Flag-NOD2 and GFP, GFP-IRGM, or GFP-IRGM-K^mut were subjected to Western blotting. (D, E) Lysates from HEK293T cells co-expressing Myc-ULK1 and either GFP or increasing amounts of GFP-IRGM were subjected to Western blotting as in (D) with the relative abundance of Myc-ULK1 shown in (E). Blot was processed (dashed vertical line) to remove irrelevant lanes. (F) HEK293T cells transfected with plasmids encoding GFP, GFP-IRGM, or GFP-IRGM-K^mut and either Myc-ULK1 or Flag-Beclin 1 were lysed and subjected to Western blotting. Data from densitometric analyses of Western blots (B, C, E), means±SE, n=3*, p<0.05 (ANOVA). (G) Depiction of the role of IRGM ubiquitination in NOD2 degradation and ULK1 stabilization. See also FIG. 13.
# NLRP3 = NLRP3 levels by immunoblot in THP-1 cells; format: cell-based, human; conditions: THP-1 cells treated with IFN-γ and LPS, with or without bafilomycin A1
# Description: as §1, with “Data, means±SE, n≥3, *P<0.05, ^†P≥0.05 (ANOVA).” left out
# (A) Co-immunoprecipitation analysis of deletion variants of TRIM20 (as GFP fusions; asterisks denote fusion products on the bottom blot) with NLRP3 in HEK293 cells. […] (E) THP-1 cells were treated with 1.0 μg/ml of LPS for 3 h, and levels of NLRP3 in lysate were determined by immunoblots. […]
Structure (SMILES),AMPK inhibition (AMPK),TRIM20 degradation in the presence of NLRP3 ([1]; GFP-TRIM20 co-expressed with NLRP3),degradation of pro-caspase 1 and NLRP1 co-expressed with TRIM20 ([1]; cells expressing GFP-TRIM20),destabilizing effect of TRIM20 overexpression on NLRP3 levels ([1]; cells expressing GFP-TRIM20),dimerized IRF3 degradation (dimerized IRF3),IRGM-promoted NOD2 degradation (NOD2),NLRP3 degradation (NLRP3)
c1cc(-c2cnn3cc(-c4ccc(OCCN5CCCCC5)cc4)cnc23)ccn1 [Compound C],potent inhibitor of AMPK,–,–,–,–,–,–
CO/C1=C\C(C)=C\[C@@H](C)[C@@H](O)[C@@H](C)C/C(C)=C/C=C/[C@H](OC)[C@@H]([C@@H](C)[C@@H](O)[C@H](C)[C@@]2(O)C[C@@H](O)[C@H](C)[C@@H](C(C)C)O2)OC1=O [bafilomycin A1],–,protected,inhabitable,suppressed,protected dimerized IRF3 from degradation,partially blocked,protected NLRP3
